Where a name gives a salt, the structure may show the parent alone.
Assay: in vitro
Settings: human, hek293t cells

SMILES	viability at 48 h, 25 µM [%]
CN(C(=O)c1ccccc1)C1CC2CCC(C1)N2C(=O)CCl (stereo not drawn) [5-J03, N-[8-(2-chloroacetyl)-8-azabicyclo[3.2.1]octan-3-yl]-N-methylbenzamide]	1.62
CC(Cl)C(=O)N(C)C1CCCCC1 (stereo not drawn) [5-J04, 2-chloro-N-cyclohexyl-N-methylpropanamide]	94.1
CC1CSc2ccc(Cl)cc2N(C(=O)CCl)C1 (stereo not drawn) [5-J05, 2-chloro-1-(7-chloro-3-methyl-2,3,4,5-tetrahydro-1,5-benzothiazepin-5-yl)ethan-1-one]	1.21
O=C(CCl)NCC1CCCCC1 [5-J06, 2-chloro-N-(cyclohexylmethyl)acetamide]	52.1
CC1CCN(C(=O)CCl)c2cc(C(F)(F)F)ccc2S1 (stereo not drawn) [5-J07, 2-chloro-1-[2-methyl-7-(trifluoromethyl)-2,3,4,5-tetrahydro-1,5-benzothiazepin-5-yl]ethan-1-one]	0.306
CCN(c1ccc(NC(=O)CCl)cc1)C(C)C [5-J08, 2-chloro-N-{4-[ethyl(propan-2-yl)amino]phenyl}acetamide hydrochloride]	3.48
CCCN(Cc1ccc(C)cc1)C(=O)CCl [5-J09, 2-chloro-N-[(4-methylphenyl)methyl]-N-propylacetamide]	0.952
O=C(CCl)NCCCN1CCCCCC1=O [5-J10, 2-chloro-N-[3-(2-oxoazepan-1-yl)propyl]acetamide]	119
CN(C)S(=O)(=O)c1ccc(NC(=O)CCl)cc1 [5-J11, 2-chloro-N-[4-(dimethylsulfamoyl)phenyl]acetamide]	1.08
CCN(CC)S(=O)(=O)c1ccc(Cl)c(NC(=O)CCl)c1 [5-J12, 2-chloro-N-[2-chloro-5-(diethylsulfamoyl)phenyl]acetamide]	0.662
Cc1nn(CC(F)(F)F)c(C)c1C1COCCN1C(=O)CCl (stereo not drawn) [5-J13, 2-chloro-1-{3-[3,5-dimethyl-1-(2,2,2-trifluoroethyl)-1H-pyrazol-4-yl]morpholin-4-yl}ethan-1-one]	2.86
O=C(CCl)Nc1cccc(CN2CCSCC2)c1 [5-J14, 2-chloro-N-{3-[(thiomorpholin-4-yl)methyl]phenyl}acetamide hydrochloride]	1.12
Cc1ncc(CNC(=O)C(C)Cl)n1C (stereo not drawn) [5-J15, 2-chloro-N-[(1,2-dimethyl-1H-imidazol-5-yl)methyl]propanamide]	106
CCN(Cc1cccc(C)c1)C(=O)CCl [5-J16, 2-chloro-N-ethyl-N-[(3-methylphenyl)methyl]acetamide]	1.39
CC(Cl)C(=O)NC(C)(C(N)=O)c1cccc(Cl)c1 (stereo not drawn) [5-J17, 2-(3-chlorophenyl)-2-(2-chloropropanamido)propanamide]	125
COc1ccc(CNC(=O)C(C)Cl)cc1 (stereo not drawn) [5-J18, 2-chloro-N-[(4-methoxyphenyl)methyl]propanamide]	98.5
CC(Cl)C(=O)N1CC=C(C(F)(F)F)CC1 (stereo not drawn) [5-J19, 2-chloro-1-[4-(trifluoromethyl)-1,2,3,6-tetrahydropyridin-1-yl]propan-1-one]	118
CC(C)N(Cc1ccccc1)C(=O)CCl [5-J20, N-benzyl-2-chloro-N-(propan-2-yl)acetamide]	1.21
CC1CC(NC(=O)C(C)Cl)=NO1 (stereo not drawn) [5-J21, 2-chloro-N-(5-methyl-4,5-dihydro-1,2-oxazol-3-yl)propanamide]	97.1
O=C(CCl)NC(=O)c1ccc(OC(F)F)cc1 [5-J22, N-(2-chloroacetyl)-4-(difluoromethoxy)benzamide]	108

SMILES	viability at 48 h, 25 µM [%]
Cc1ccc(Cc2cnc(NC(=O)CCl)s2)cc1 [5-K03, 2-chloro-N-{5-[(4-methylphenyl)methyl]-1,3-thiazol-2-yl}acetamide]	-0.392
CCC(=O)Nc1cccc(NC(=O)CCl)c1C [5-K04, N-[3-(2-chloroacetamido)-2-methylphenyl]propanamide]	2.12
CC(Cl)C(=O)Nc1nc2ccccc2s1 (stereo not drawn) [5-K05, N-(1,3-benzothiazol-2-yl)-2-chloropropanamide]	59.9
CCn1ccc(CN(C)C(=O)CCl)n1 [5-K06, 2-chloro-N-[(1-ethyl-1H-pyrazol-3-yl)methyl]-N-methylacetamide]	1.77
N#Cc1ccc(OC2CN(C(=O)CCl)C2)cc1 [5-K07, 4-{[1-(2-chloroacetyl)azetidin-3-yl]oxy}benzonitrile]	0.233
CN(Cc1ccccc1)S(=O)(=O)c1ccc(NC(=O)CCl)cc1 [5-K08, N-{4-[benzyl(methyl)sulfamoyl]phenyl}-2-chloroacetamide]	16.1
O=C(CCl)N1c2ccc(F)cc2NC(=O)C12CCC2 [5-K09, 1'-(2-chloroacetyl)-6'-fluoro-3',4'-dihydro-1'H-spiro[cyclobutane-1,2'-quinoxalin]-3'-one]	0.346
O=C(CCl)N1CCC1c1cccc(F)c1 (stereo not drawn) [5-K10, 2-chloro-1-[2-(3-fluorophenyl)azetidin-1-yl]ethan-1-one]	28.5
CN(C)C(=O)c1cc2n(n1)CC1(CCN(C(=O)CCl)CC1)OC2 [5-K11, 1-(2-chloroacetyl)-N,N-dimethyl-4',7'-dihydrospiro[piperidine-4,6'-pyrazolo[3,2-c][1,4]oxazine]-2'-carboxamide]	0.714
CC(O)CN(Cc1ccc(Cl)c(F)c1)C(=O)CCl (stereo not drawn) [5-K12, 2-chloro-N-[(4-chloro-3-fluorophenyl)methyl]-N-(2-hydroxypropyl)acetamide]	0.478
Cc1ccc(N(C(=O)CCl)C2C=CS(=O)(=O)C2)cc1 (stereo not drawn) [5-K13, 2-chloro-N-(1,1-dioxo-2,3-dihydro-1lambda6-thiophen-3-yl)-N-(4-methylphenyl)acetamide]	0.562
CC(NC(=O)CCl)C(=O)N1CCS(=O)(=O)CC1 (stereo not drawn) [5-K14, 2-chloro-N-[1-(1,1-dioxo-1lambda6-thiomorpholin-4-yl)-1-oxopropan-2-yl]acetamide]	86.7
Cc1cc(C)c(NC(=O)C(C)Cl)c(C)c1 (stereo not drawn) [5-K15, 2-chloro-N-(2,4,6-trimethylphenyl)propanamide]	140
NS(=O)(=O)c1cccc2cc(NC(=O)CCl)ccc12 [5-K16, 2-chloro-N-(5-sulfamoylnaphthalen-2-yl)acetamide]	1.61
Cc1nc(-c2cccc(NC(=O)CCl)c2)cs1 [5-K17, 2-chloro-N-[3-(2-methyl-1,3-thiazol-4-yl)phenyl]acetamide]	13.2
O=C(CCl)N1CCC(Cc2nc(-c3ccc(F)cn3)no2)CC1 [5-K18, 2-chloro-1-(4-{[3-(5-fluoropyridin-2-yl)-1,2,4-oxadiazol-5-yl]methyl}piperidin-1-yl)ethan-1-one]	1.83
CC(Cl)C(=O)N(Cc1ccccc1)Cc1ccccc1 (stereo not drawn) [5-K19, N,N-dibenzyl-2-chloropropanamide]	82.1
Cc1ccc(C)c(CN(CCO)C(=O)CCl)c1 [5-K20, 2-chloro-N-[(2,5-dimethylphenyl)methyl]-N-(2-hydroxyethyl)acetamide]	2.44
CC(Cl)C(=O)N1CCC(Cc2ccccc2)CC1 (stereo not drawn) [5-K21, 1-(4-benzylpiperidin-1-yl)-2-chloropropan-1-one]	86.2

Source: publication PMC11995724, “Antibiotic target discovery by integrated phenotypic and activity-based profiling of electrophilic fragments” (Cell chemical biology, 2025)
